Results: patent publication US20040110247A1, “New molecular tools for the rapid assessment of the presence and viability of microorganisms and methods of use” (priority 2002, published 2004)

Key:
Format in all cases: cell-based
[1] = system: Wild-type (wt) Streptococcus gordonii; experiment: Quantitative culture (colony counts) of drug-exposed S. gordonii cultures
Protocol: (§1) 1) Strains and growth conditions: Wild-type (wt) and penicillin tolerant (Tol) Streptococcus gordonii (I. Caldelari et al., Antimicrobial Agents and Chemotherapy, 2000, 44(10):2802-2810) were grown at 37 degrees Celsius, either in brain heart infusion broth (BHI) without aeration, or on Columbia agar supplemented with 3% blood. Quantitative culture was performed by plating serial dilutions of bacterial cultures taken at various time points on penicillinase-containing blood-agar plates. Colonies counts were determined after incubation for […] at 37° C.

[2] = system: penicillin tolerant (Tol) Streptococcus gordonii; experiment: RT-qPCR of 16S rRNA after drug exposure, tolerant mutant control; details: same system, Tol as control
Protocol: as §1
(§2) 3) Extraction and purification of bacterial DNA and RNA: (i) Total DNA from 3 ml of culture samples was extracted and purified using the DNeasy Tissue Kit according to the instructions of the manufacturer (Qiagen). […] Total RNA concentrations were determined by spectrophotometry and quality checked on 1% MOPS-agarose gels. […]
(§3) 4) Quantitative Real-Time PCR was performed using the following probe FAM-5′-TTGCACCACTACCAGATGGAC CTGC-3′-TAMRA (SEQ ID NO:3) according to the instruction of the manufacturer (Perkin-Elmer) on Sequence Detection System 5700 (Perkin-Elmer) in a total volume of 50 μl 1×PCR buffer (Gibco) containing 25 pmoles of each primer, […] of fluorescent probe, […] each dNTP and 1.5 UI of Taq DNA polymerase (Gibco). […]

[3] = system: Wild-type (wt) Streptococcus gordonii; experiment: RT-qPCR of 16S rRNA after drug exposure; details: reverse transcription of 16S rRNA from total RNA, then qPCR
Protocol: as §1, §2, §3

Substance: penicillin
- loss of viability ([1]; after addition of penicillin, up to 50 hours): 5 log CFU/ml
- loss of viability ([1]; cultures dramatically killed with penicillin (qualitative PCR experiment)): > 3 log CFU/ml
- ribosomal RNA amplicons in penicillin-tolerant mutant Tol [2]: remained stable and proportional to viable bacteria
- 16S rRNA amplicons (viability marker) during drug-induced killing [3]: decreased proportionally to cell death
